Marks after values point to notes of the source that are not given here.
Legend:
[1] = test system: MES-induced seizure spread; experiment: Maximal Electroshock Seizure (MES) test, mice i.p.; assay type: in vivo; details: for MES: number of animals protected/total number of animals tested: mice i.p.
Text: (§1) The fluoro derivatives synthesized were submitted to the National Institute of Neurological Disorders and Stroke (NINDS) for evaluation in a standard panel of assays. Two convulsant tests (MES and scMET), and a toxicity screen (rotorod in mice, positional sense and gait in rats) were employed for evaluating the compounds activity as neuroprotecting agents. These testing procedures are described in detail in Molecular and Cellular Targets for Anti-epileptic Drugs, eds. G. Avanzini, G. Regesta, P. Tanganelli, M. Avoli, 1997, John Libbey & Company Ltd, pp 191-198. The felbamate derivatives were evaluated for anticonvulsant activity following intraperitoneal (i.p.) administration in mice and oral administration in rats.
(§2) The MES test is a model for generalized tonic-clonic seizures and is used to identify compounds which prevent seizure spread. The behavioral and electrographic seizures generated in this model are consistent with the human disorder. In the MES test, an electrical stimulus of 0.2 s in duration (50 mA in mice and 150 mA in rat at 60 Hz) was delivered via corneal electrodes primed with an electrolyte solution containing an anesthetic agent. Mice were tested at 30 minutes and 4 hours following doses of 30, 100 and 300 mg/kg of test compound. Rats were tested at time intervals between 0.25 and 4 hours following a standard oral dose of 30 mg/kg. Abolition of the hindlimb tonic extensor component indicates the test compound's ability to inhibit MES-induced seizure spread.
(§3) For the MES and scMET tests the data is presented in the form of the number of animals protected by the administered compound/total number of animals tested. […] Qualitative data was obtained for fluoro felbamate 12 (Tables 1 and 2A), fluoro monocarbamate felbamate 13 (Tables 1 and 2B), and flourodioxo 16 (Tables 1 and 2C) and for cyclic felbamate 21 (Tables 5 and 6B) and cyclic monocarbamate 22 (Tables 5 and 6A). More extensive quantitative data was also obtained for fluoro felbamate 12 in mice (Table 3) and rats (Table 4).

[2] = test system: pentylenetetrazol-induced clonic seizures; experiment: Subcutaneous Metrazol seizure test (scMET), mice i.p.; assay type: in vivo, Carworth Farms No. 1 mice
Text: as §1
This is a model that primarily identifies compounds that raise seizure threshold. With some minor exceptions, the pharmacological profile of the scMET seizure model is consistent with the human condition. The scMET test utilizes a dose of pentylenetetrazol (85 mg/kg in Carworth Farms No. 1 mice and 70 mg/kg in Sprague-Dawley rats) that induces clonic seizures lasting for a period of at least five seconds in 97% (CD97) of animals tested. At the anticipated time of testing the convulsant is administered subcutaneously. The test compound is administered intraperitoneally in mice and orally in rats. Animals are observed over a 30 minute period. Absence of clonic spasms in the observed time period indicates a compound's ability to abolish the effect of pentylenetetrazol on seizure threshold.
as §3

[3] = test system: mice (rotorod); experiment: Minimal neurotoxicity (TOX), rotorod test, mice i.p.; assay type: in vivo; details: for TOX: number of animals exhibiting toxic effects/total number of animals tested: mice i.p.
Text: as §1, with “G. Avanzini, G. Regesta, P. Tanganelli, M. Avoli, 1997, John Libbey & Company Ltd, pp 191-198.” left out, “rats. […]” for “rats.”

[4] = test system: MES-induced seizure spread; experiment: Maximal Electroshock Seizure (MES) test, rats p.o.; assay type: in vivo; details: for anti-seizure activity in rats: rat models; for MES: number of animals protected/total number of animals tested: rat p.o.; for MES: number of animals protected/total number of animals tested / MES protection: 30 mg/kg; for MES protection: rats, oral, several timepoints
Text: as §1, §2, §3

[5] = test system: rats (positional sense, gait and stance); experiment: Minimal neurotoxicity (TOX), positional sense and gait and stance tests, rats p.o.; assay type: in vivo; details: for TOX: number of animals exhibiting toxic effects/total number of animals tested: rat p.o., 30 mg/kg
Text: as §1, with “G. Avanzini, G. Regesta, P. Tanganelli, M. Avoli, 1997, John Libbey & Company Ltd, pp 191-198.” left out
Rats are examined for behavioral toxicity by the positional sense test and a gait and stance test. […] In the gait and stance test, neurotoxicity is indicated by a circular or zigzag gait, ataxia, abnormal spread of the legs, abnormal posture, tremor hyperactivity, lack of exploratory behavior, somnolence, stupor or catalepsy.
For the MES and scMET tests the data is presented in the form of the number of animals protected by the administered compound/total number of animals tested.

[6] = test system: hippocampal kindled focal seizures; experiment: Hippocampal kindling model, kindled rats i.p.; assay type: in vivo, adult male Sprague-Dawley rats; details: for Number Protected/Number Tested: Dose Responses table
Text: The hippocampal kindling model can be used to evaluate a compound's ability to affect both the expression and acquisition of focal seizures. The hippocampal kindling paradigm as described by Lothman and Williamson (Lothman, 1994) allows the temporal effects of a drug to be evaluated in a single animal. This procedure requires the surgical placement of bipolar electrodes in the ventral hippocampus of adult male Sprague-Dawley rats. Stage five behavioral seizures are produced by using a stimulus consisting of a 50 Hz, 10 s train of 1 ms biphasic 200 uA pulses delivered every 30 min for 6 hours (12 stimuli per day) on alternating days for a total of 60 stimulations (five stimulus days). Prior to evaluating a candidate's anticonvulsant activity, a drug free control period consisting of supramaximal stimulations are recorded to verify the stability of a stage five generalized seizure.
A single dose of the candidate compound is then administered intraperitoneally (i.p.), 15 min following the last control stimulation. The anticonvulsant activity of the drug is assessed every 30 min for three to four hours starting 15 min after administering the test material. After each stimulation, individual Racine seizure scores and afterdischarge durations are recorded. Rats are used again in drug trials after four to five drug- and stimulus-free days.

[7] = Stability of oxazinane-dione at relevant pH; assay type: physicochemical

NC(=O)OCC1(c2ccccc2)COC(=O)N1 (stereo not drawn) [cyclic felbamate]
MES: number of animals protected/total number of animals tested ([1]; 30 mg/kg, 0.5 h): 0/1
MES: number of animals protected/total number of animals tested ([1]; 30 mg/kg, 4.0 h): 0/1
MES: number of animals protected/total number of animals tested ([1]; 100 mg/kg, 0.5 h): 0/3
MES: number of animals protected/total number of animals tested ([1]; 100 mg/kg, 4.0 h): 0/3
MES: number of animals protected/total number of animals tested ([1]; 300 mg/kg, 0.5 h): 0/1
MES: number of animals protected/total number of animals tested ([1]; 300 mg/kg, 4.0 h): 0/1
ScMET: number of animals protected/total number of animals tested ([2]; 30 mg/kg, 0.5 h): 0/1
ScMET: number of animals protected/total number of animals tested ([2]; 30 mg/kg, 4.0 h): 0/1
ScMET: number of animals protected/total number of animals tested ([2]; 100 mg/kg, 0.5 h): 0/1
ScMET: number of animals protected/total number of animals tested ([2]; 100 mg/kg, 4.0 h): 0/1
ScMET: number of animals protected/total number of animals tested ([2]; 300 mg/kg, 0.5 h): 0/1
ScMET: number of animals protected/total number of animals tested ([2]; 300 mg/kg, 4.0 h): 0/1
TOX: number of animals exhibiting toxic effects/total number of animals tested ([3]; 30 mg/kg, 0.5 h): 0/4
TOX: number of animals exhibiting toxic effects/total number of animals tested ([3]; 30 mg/kg, 4.0 h): 0/2
TOX: number of animals exhibiting toxic effects/total number of animals tested ([3]; 100 mg/kg, 0.5 h): 0/8
TOX: number of animals exhibiting toxic effects/total number of animals tested ([3]; 100 mg/kg, 4.0 h): 0/4
TOX: number of animals exhibiting toxic effects/total number of animals tested ([3]; 300 mg/kg, 0.5 h): 0/4
TOX: number of animals exhibiting toxic effects/total number of animals tested ([3]; 300 mg/kg, 4.0 h): 0/2
anti-seizure activity in rats [4]: potent activity
MES: number of animals protected/total number of animals tested ([4]; 0.25 h): 2/4
MES: number of animals protected/total number of animals tested ([4]; 0.5 h): 2/4
MES: number of animals protected/total number of animals tested ([4]; 1.0 h): 3/4
MES: number of animals protected/total number of animals tested ([4]; 2.0 h): 0/4
MES: number of animals protected/total number of animals tested ([4]; 4.0 h): 3/4
TOX: number of animals exhibiting toxic effects/total number of animals tested ([5]; 0.25 h): 0/4
TOX: number of animals exhibiting toxic effects/total number of animals tested ([5]; 0.5 h): 0/4
TOX: number of animals exhibiting toxic effects/total number of animals tested ([5]; 1.0 h): 0/4
TOX: number of animals exhibiting toxic effects/total number of animals tested ([5]; 2.0 h): 0/4
TOX: number of animals exhibiting toxic effects/total number of animals tested ([5]; 4.0 h): 0/4

O=C1NC(=O)C(F)(c2ccccc2)CO1 (stereo not drawn) [fluoro dioxo, 5-Fluoro-5-phenyl-1,3-oxazinane-2,4-dione]
anti-seizure activity in mice ([1]; mice): inactive
anti-seizure activity in rats [4]: strong anti-seizure activity

NC(=O)OCC(F)(COC(N)=O)c1ccccc1 [fluoro felbamate, 2-Fluoro-2-phenyl-1,3-propanediol dicarbamate]
MES protection ([1]; mice, 30 mg/kg, at both 30 minutes and 4 hours): MES protective effects
times more active than felbamate ([1]; test not specified): 5-10 times
dosage at which toxicity across time occurs ([3]; mice): ≥ 300 mg/kg
toxic effects ([3]; mice, 30 mg/kg, 30 minute timepoint): some toxic effects
safety ratio ([3]; mice, quantitative results (Table 3)): at least five
TOX ED50 ([3]; mouse, I.P.): 115 mg/kg
MES protection [4]: full protection
no toxicity at doses up to ([5]; oral administration to rats): up to 500 mg/kg
TOX ED50 ([5]; rat, p.o.): >500 mg/kg
Number Protected/Number Tested ([6]; 25 mg/kg): 0/7
Number Protected/Number Tested ([6]; 50 mg/kg): 3/7
Number Protected/Number Tested ([6]; 100 mg/kg): 7/8^a
afterdischarge duration ([6]; kindled rats, 100 mg/kg): corresponding decrease in afterdischarge duration
seizure score ([6]; kindled rats, 100 mg/kg): significant drop in seizure score

NC(=O)OCC(F)(CO)c1ccccc1 (stereo not drawn) [fluoro monocarbamate felbamate, 2-Fluoro-2-phenyl-1,3-propanediol monocarbamate]
MES protection ([1]; mice, 100 mg/kg): moderate MES protection
MES protection [4]: protection is seen at several different timepoints

O=C1NC(=O)C(c2ccccc2)CO1 (stereo not drawn) [oxazinane-dione 9]
stability at relevant pH [7]: unstable

Reference: US6759402B2, “Cyclic felbamate derived compounds” (University of Virginia Patent Foundation, priority 1999, dated 2004)
